Experimental data taken from patent EP2830605B1, “A COMBINATION MEDICAMENT COMPRISING PHENYLEPHRINE AND PARACETAMOL” (priority 2013, dated 2014).
Counter-ions that a name gives are not always drawn. Like-named read-outs stand apart in the source and are kept apart here.

Experiments:
[1] = in vivo
[2] = cited from earlier work

Ratio (increase of AUCtot), calculation for paracetamol 650 mg ([1]; human): ~1.73 | dose of phenylephrine hydrochloride alone that is similar [1]: 16 to 20 mg
Compound: CNC[C@H](O)c1cccc(O)c1 [10 mg phenylephrine hydrochloride, phenylephrine hydrochloride]
Adverse Event Rate ([2]; dose 10mg, hydrochloride): 12.5% | Adverse Event Rate ([2]; dose 10mg, listed as Phenylephrine HCL, hydrochloride): 12.5% | Adverse Event Rate ([2]; dose 15mg): 43.8% | Adverse Event Rate ([2]; dose 25mg): 81.3%
